Laboratory results published in patent US4596804A, “Dibenz[b,e]oxepin compounds” (Kyowa Hakko Kogyo Co., Ltd., priority 1983, dated 1986).
Counter-ions that a name gives are not always drawn.

Tests used:
[1] = system: passive cutaneous anaphylaxis (PCA) reaction; experiment: 48-hour homologous PCA (passive cutaneous anaphylaxis) test in rats, antiallergic activity; assay type: in vivo, male Wistar strain rats; settings: minimum dose with at least one positive among three rats; for minimal effective dose: Rattus norvegicus, po, read-out: Antiallergic Activity, MED (minimum effective dose); for Antiallergic Activity, MED (minimum effective dose): oral
Procedure: The 48-hour homologous PCA (passive cutaneous anaphylaxis) test was employed. As test animals, male Wistar strain rats weighing 180 to 220 g were used for preparation of antiserum and those weighing 120 to 140 g for PCA test.
(A) Preparation of rat antiserum to EWA
Rat antiserum to egg white albumin (EWA) was prepared by the method of Stotland Share [Canad. J. Physiol. Pharmacol. 52, 1114 (1974)] as follows. One mg of EWA was mixed with 20 mg of aluminum hydroxide gel and 0.5 ml of pertussis/diphtheria/tetanus mixed vaccine, and the mixture was subcutaneously injected to each rat through the sole in four portions. After 14 days, blood samples were taken from the carotid artery, and the serum was separated and stored at -80° C. The 48-hour homologous PCA titer of this antiserum was 1:32.
(B) 48-hour homologous PCA test in rats
Three rats for each group were employed for 48-hour homologous PCA test. Rats were passively sensitized by injecting intradermally at the two spots on the shaved back 0.05 ml portions of the antiserum which was diluted 8-fold with physiological saline. After 47 hours, test compounds or the solutions thereof (physiological saline solution or CMC solution) were orally administered to the rats, and after one hour, the animals were injected intraveneously to tail vein 0.5 ml/100 g body weight of saline containing 2 mg of EWA, together with 1% Evans blue. Thirty minutes after antigen challenge, the rats were sacrificed by exanguination, and the skin was cut out, followed by the evaluation of the intensity of PCA reaction by expressing the amounts of dye leaked. The amounts of dye leaked from the blue-stained section were measured by the metod of Katayama, et al [Microbiol. Immunol. 22, 89 (1978)] as follows. A portion of the blue-stained section cut out with scissors was placed in a test tube containing 1 ml of 1N KOH solution, and incubated at 37° C. for 24 hours. 9 ml of a mixture of 0.6N phosphoric acid and acetone (5:13) was added, and the mixture was shaken and subjected to centrifugation at 2500 rpm for 10 minutes. Then, the absorbance of the supernatant liquid at 620 mμ was measured, and the amount of eluted dye was determined by using a calibration curve previously prepared. The average of the measurements for the two positions was taken as the value for each individual, and the inhibition rate for each rat was calculated from the following formula: [formula]
PCA inhibiting activity was evaluated as positive when the inhibition rate was 50% or higher, and the minimum dose required to achieve positive result for at least one among the three rats in each group was taken as the minimum effective dose (MED).

[2] = system: male dd strain mice; experiment: Acute toxicity (minimum lethal dose); assay type: in vivo; settings: mortality seven days after administration; for Acute Toxicity (MLD) ip: intraperitoneal
Procedure: The present compound was administered orally (p.o. 300 mg/kg) or intraperitoneally (i.p. 100 mg/kg) to several groups of male dd strain mice weighing 19 to 21 g (each group consisting of three mice), and MLD (minimum lethal dose) was determined by observing the mortality seven days after administration.

SMILES	minimal effective dose [1]	Acute Toxicity (MLD) ip [2]	Acute Toxicity (MLD) PO [2]	Antiallergic Activity, MED (minimum effective dose) [1]
CN1CCN(C2c3ccccc3COc3ccc(C(=O)O)cc32)CC1 (stereo not drawn) [Compound 3, 11-(4-Methylpiperazino)-6,11-dihydrodibenz[b,e]oxepin-2-carboxylic acid diacetate.2H2 O]	1 mg/kg	> 100 mg/kg	> 300 mg/kg	–
CN1CCN(C2c3ccccc3COc3ccc(C(N)=O)cc32)CC1 (stereo not drawn) [Compound 4, 11-(4-Methylpiperazino)-6,11-dihydrodibenz[b,e]oxepin-2-carboamide]	10 mg/kg	> 100 mg/kg	> 300 mg/kg	–
CN1CCN(C2c3ccccc3COc3ccc(-c4nnn[nH]4)cc32)CC1 (stereo not drawn) [Compound 6, 11-(4-Methylpiperazino)-2-(5-tetrazolyl)-6,11-dihydrodibenz[b,e]oxepin Na salt]	10 mg/kg	> 100 mg/kg	> 300 mg/kg	–
CCOC(=O)c1ccc2c(c1)C(SCCN(C)C)c1ccccc1CO2 (stereo not drawn) [Compound 7, 11-(N,N--dimethylaminoethyl)thio-6,11-dihydrodibenz[b,e]oxepin-2-carboxylic acid ethyl ester]	10 mg/kg	> 100 mg/kg	> 300 mg/kg	–
CN(C)CCSC1c2ccccc2COc2ccc(C(=O)O)cc21 (stereo not drawn) [Compound 8, 11-(N,N--dimethylaminoethyl)thio-6,11-dihydrodibenz[b,e]oxepin-2-carboxylic acid acetate]	–	> 100 mg/kg	> 300 mg/kg	10 mg/kg
CN(C)CCSC1c2ccccc2COc2ccc(C#N)cc21 (stereo not drawn) [Compound 10, 11-(N,N--dimethylaminoethyl)thio-6,11-dihydrodibenz[b,e]oxepin-2-carbonitrile]	1 mg/kg	> 100 mg/kg	> 300 mg/kg	–
CCOC(=O)c1ccc2c(c1)C(OCCN(C)C)c1ccccc1CO2 (stereo not drawn) [Compound 11, 11-(N,N--dimethylaminoethyl)oxy-6,11-dihydrodibenz[b,e]oxepin-2-carboxylic acid ethyl ester]	1 mg/kg	> 100 mg/kg	> 300 mg/kg	–
CN(C)CCNC1c2ccccc2COc2ccc(C(N)=O)cc21 (stereo not drawn) [Compound 14, 11-(N,N--dimethylaminoethyl)amino-6,11-dihydrodibenz[b,e]oxepin-2-carboamide]	1 mg/kg	> 100 mg/kg	300 mg/kg	–
CCOC(=O)c1ccc2c(c1)C(NC1CN3CCC1CC3)c1ccccc1CO2 (stereo not drawn) [Compound 17, 11-(3-Quinuclidinyl)amino-6,11-dihydrodibenz[b,e]oxepin-2-carboxylic acid ethyl ester]	0.1 mg/kg	> 100 mg/kg	> 300 mg/kg	–
CCOC(=O)OC(C)OC(=O)c1ccc2c(c1)C(N1CCN(C)CC1)c1ccccc1CO2 (stereo not drawn) [Compound 19, 11-(4-Methylpiperazino)-6,11-dihydrodibenz[b,e]oxepin-2-carboxylic acid (1-ethoxycarbonyloxy)ethyl ester]	1 mg/kg	> 100 mg/kg	> 300 mg/kg	–
CCOC(=O)OC(C)OC(=O)c1ccc2c(c1)C(SCCN(C)C)c1ccccc1CO2 (stereo not drawn) [Compound 20, 11-(N,N--dimethylaminoethyl)thio-6,11-dihydrodibenz[b,e]oxepin-2-carboxylic acid (1-ethoxycarbonyloxy)ethyl ester]	0.1 mg/kg	> 100 mg/kg	> 300 mg/kg	–
CN1CCN(C2c3ccccc3COc3ccc(C(=O)O)cc32)CC1 (stereo not drawn) [Compound 21, 11-(4-Methylpiperazino)-6,11-dihydrodibenz[b,e]oxepin-2-carboxylic acid dihydrochloride.1/4H2 O]	–	> 100 mg/kg	> 300 mg/kg	1 mg/kg
CN(C)CCSC1c2ccccc2COc2ccc(C(=O)O)cc21 (stereo not drawn) [Compound 22, 11-(N,N--dimethylaminoethyl)thio-6,11-dihydrodibenz[b,e]oxepin-2-carboxylic acid hydrochloride.1/2H2 O]	–	> 100 mg/kg	> 300 mg/kg	0.1 mg/kg
